Assay results published in patent US9751858B2, “3-heteroaroylamino-propionic acid derivatives and their use as pharmaceuticals” (SANOFI, priority 2011, dated 2017).

Molecular target: T1, Recombinant human cathepsin A (Homo sapiens, UniProt P10619)
T1 construct: Recombinant human cathepsin A (residues 29-480, with a C-terminal 10-His tag); 10-His (C); purchased R&D Systems 1049-SE
T1 sequence (P10619 29-326 limits assumed): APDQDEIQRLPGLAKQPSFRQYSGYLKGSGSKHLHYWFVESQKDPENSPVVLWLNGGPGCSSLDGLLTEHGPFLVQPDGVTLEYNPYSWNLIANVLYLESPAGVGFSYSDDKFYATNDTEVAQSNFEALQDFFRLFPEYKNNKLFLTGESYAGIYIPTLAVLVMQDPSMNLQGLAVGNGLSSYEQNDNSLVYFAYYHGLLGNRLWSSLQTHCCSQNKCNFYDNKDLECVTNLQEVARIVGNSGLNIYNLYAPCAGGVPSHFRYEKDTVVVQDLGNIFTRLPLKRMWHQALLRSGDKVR
T1 sequence (P10619 327-480 limits assumed): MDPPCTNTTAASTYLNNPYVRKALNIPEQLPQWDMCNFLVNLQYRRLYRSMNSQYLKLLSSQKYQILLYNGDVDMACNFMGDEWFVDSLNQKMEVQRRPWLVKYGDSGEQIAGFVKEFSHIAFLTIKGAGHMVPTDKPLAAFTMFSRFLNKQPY
Assay: Cathepsin A inhibitory activity
Format: biochemical
Conditions: activated recombinant human cathepsin A 833 ng/ml, Bodipy FL-labeled bradykinin 2 μM, pH 5.5, 15 min room temperature
Description: a) Cathepsin a Inhibitory Activity
Briefly, cathepsin A was incubated at 10 μg/ml with cathepsin L at 1 μg/ml in activation buffer (25 mM 2-(morpholin-4-yl)-ethanesulfonic acid (MES), pH 6.0, containing 5 mM dithiothreitol (DTT)) for 15 min at 37° C.
The activated cathepsin A was diluted in assay buffer (25 mM MES, pH 5.5, containing 5 mM DTT) and mixed with the test compound (dissolved in assay buffer containing (v/v) 3% DMSO) or, in the control experiments, with the vehicle in a multiple assay plate. After incubation for 15 min at room temperature, as substrate then bradykinin carrying an N-terminal ®Bodipy FL (4,4-difluoro-5,7-dimethyl-4-bora-3a,4a-diaza-s-indacene-3-propionyl) label (JPT Peptide Technologies GmbH; dissolved in assay buffer) was added to the mixture. […] After incubation for 15 min at room temperature the reaction was stopped by the addition of stop buffer (130 mM 2-(4-(2-hydroxy-ethyl)-piperazin-1-yl)-ethanesulfonic acid, pH 7.4, containing (v/v) 0.013%® Triton X-100, 0.13% Coating Reagent 3 (Caliper Life Sciences), 6.5% DMSO and 20 μM ebelactone B (Sigma, # E0886)).
Uncleaved substrate and product were then separated by a microfluidic capillary electrophoresis on a LabChip® 3000 Drug Discovery System (12-Sipper-Chip; Caliper Life Sciences) and quantified by determination of the respective peak areas. Substrate turnover was calculated by dividing product peak area by the sum of substrate and product peak areas, and the enzyme activity and the inhibitory effect of the test compound thus quantified.

SMILES | IC50
Cc1ccccc1[C@H](CC(=O)O)NC(=O)c1c[nH]c(-c2ccccc2)n1 [Example 1, (S)-3-[(2-Phenyl-1H-imidazole-4-carbonyl)-amino]-3-o-tolyl-propionic acid] | 0.213 µM
Cc1ccccc1[C@H](CC(=O)O)NC(=O)c1cc(-c2ccccc2)on1 [Example 2, (S)-3-[(5-Phenyl-isoxazole-3-carbonyl)-amino]-3-o-tolyl-propionic acid] | 6.96 µM
Cc1oc(-c2ccccc2)nc1C(=O)NC(CC(=O)O)C1CCCCC1 (stereo not drawn) [Example 3, 3-Cyclohexyl-3-[(5-methyl-2-phenyl-oxazole-4-carbonyl)-amino]-propionic acid] | 4.97 µM
Cc1oc(-c2ccccc2)nc1C(=O)NC(CC(=O)O)Cc1ccccc1 (stereo not drawn) [Example 4, 3-[(5-Methyl-2-phenyl-oxazole-4-carbonyl)-amino]-4-phenyl-butyric acid] | 12.9 µM
Cc1ccccc1[C@H](CC(=O)O)NC(=O)c1nc(-c2ccccc2)oc1C [Example 5, (S)-3-[(5-Methyl-2-phenyl-oxazole-4-carbonyl)-amino]-3-o-tolyl-propionic acid] | 0.251 µM
Cc1ccccc1[C@H](CC(=O)O)NC(=O)c1nn(C(C)C)c2ccccc12 [Example 6, (S)-3-[(1-Isopropyl-1H-indazole-3-carbonyl)-amino]-3-o-tolyl-propionic acid] | 0.351 µM
Cc1oc(-c2ccccc2)nc1C(=O)N[C@@H](CC(=O)O)c1ccccc1F [Example 7, (S)-3-(2-Fluoro-phenyl)-3-[(5-methyl-2-phenyl-oxazole-4-carbonyl)-amino]-propionic acid] | 4.13 µM
Cc1oc(-c2ccccc2)nc1C(=O)N[C@@H](CC(=O)O)c1cccc(F)c1 [Example 8, (S)-3-(3-Fluoro-phenyl)-3-[(5-methyl-2-phenyl-oxazole-4-carbonyl)-amino]-propionic acid] | 5.31 µM
Cc1oc(-c2ccccc2)nc1C(=O)N[C@@H](CC(=O)O)c1ccc(F)cc1 [Example 9, (S)-3-(4-Fluoro-phenyl)-3-[(5-methyl-2-phenyl-oxazole-4-carbonyl)-amino]-propionic acid] | 5.57 µM
Cc1oc(-c2ccccc2F)nc1C(=O)N[C@@H](CC(=O)O)c1ccccc1 [Example 10, (S)-3-{[2-(2-Fluoro-phenyl)-5-methyl-oxazole-4-carbonyl]-amino}-3-phenyl-propionic acid] | 2.32 µM
O=C(O)C[C@@H](Cc1ccccc1)NC(=O)c1nc(-c2ccccc2F)no1 [Example 11, (R)-3-{[3-(2-Fluoro-phenyl)-[1,2,4]oxadiazole-5-carbonyl]-amino}-4-phenyl-butyric acid] | 4.89 µM
Cc1ccc([C@H](CC(=O)O)NC(=O)c2noc(-c3ccccc3F)n2)cc1 [Example 12, (S)-3-{[5-(2-Fluoro-phenyl)-[1,2,4]oxadiazole-3-carbonyl]-amino}-3-p-tolyl-propionic acid] | > 10 µM
O=C(O)C[C@@H](Cc1ccccc1)NC(=O)c1noc(-c2ccccc2F)n1 [Example 13, (R)-3-{[5-(2-Fluoro-phenyl)-[1,2,4]oxadiazole-3-carbonyl]-amino}-4-phenyl-butyric acid] | 0.316 µM
C[C@@](CC(=O)O)(NC(=O)c1noc(-c2ccccc2F)n1)c1ccccc1 [Example 14, (S)-3-{[5-(2-Fluoro-phenyl)-[1,2,4]oxadiazole-3-carbonyl]-amino}-3-phenyl-butyric acid] | 17.4 µM
Cc1ccccc1[C@H](CC(=O)O)NC(=O)c1noc(-c2ccccc2F)n1 [Example 15, (S)-3-{[5-(2-Fluoro-phenyl)-[1,2,4]oxadiazole-3-carbonyl]-amino}-3-o-tolyl-propionic acid] | 4.92 µM
Cc1cccc([C@H](CC(=O)O)NC(=O)c2noc(-c3ccccc3F)n2)c1 [Example 16, (S)-3-{[5-(2-Fluoro-phenyl)-[1,2,4]oxadiazole-3-carbonyl]-amino}-3-m-tolyl-propionic acid] | > 10 µM
O=C(O)C[C@H](NC(=O)c1noc(-c2ccccc2F)n1)c1ccccc1F [Example 17, (S)-3-(2-Fluoro-phenyl)-3-{[5-(2-fluoro-phenyl)-[1,2,4]oxadiazole-3-carbonyl]-amino}-propionic acid] | > 10 µM
O=C(O)C[C@H](NC(=O)c1noc(-c2ccccc2F)n1)c1cccc(F)c1 [Example 18, (S)-3-(3-Fluoro-phenyl)-3-{[5-(2-fluoro-phenyl)-[1,2,4]oxadiazole-3-carbonyl]-amino}-propionic acid] | > 10 µM
O=C(O)C[C@H](NC(=O)c1noc(-c2ccccc2F)n1)c1ccc(F)cc1 [Example 19, (S)-3-(4-Fluoro-phenyl)-3-{[5-(2-fluoro-phenyl)-[1,2,4]oxadiazole-3-carbonyl]-amino}-propionic acid] | 8.58 µM
O=C(O)C[C@H](NC(=O)c1noc(-c2cccc(F)c2F)n1)c1ccccc1 [Example 20, (S)-3-{[5-(2,3-Difluoro-phenyl)-[1,2,4]oxadiazole-3-carbonyl]-amino}-3-phenyl-propionic acid] | 7.35 µM
CCn1nc(C(=O)N[C@@H](CC(=O)O)c2ccccc2C)cc1-c1ccccc1 [Example 21, (S)-3-[(1-Ethyl-5-phenyl-1H-pyrazole-3-carbonyl)-amino]-3-o-tolyl-propionic acid] | 0.152 µM

Further lines, results first:

IC50 | SMILES
1.04 µM | CC(C)c1oc(-c2ccccc2)nc1C(=O)N[C@@H](CC(=O)O)c1ccccc1 [Example 22, (S)-3-[(5-Isopropyl-2-phenyl-oxazole-4-carbonyl)-amino]-3-phenyl-propionic acid]
2.39 µM | COc1ccc([C@H](CC(=O)O)NC(=O)c2nc(-c3ccccc3)oc2C)cc1 [Example 23, (S)-3-(4-Methoxy-phenyl)-3-[(5-methyl-2-phenyl-oxazole-4-carbonyl)-amino]-propionic acid]
6.39 µM | COc1cccc([C@H](CC(=O)O)NC(=O)c2nc(-c3ccccc3)oc2C)c1 [Example 24, (S)-3-(3-Methoxy-phenyl)-3-[(5-methyl-2-phenyl-oxazole-4-carbonyl)-amino]-propionic acid]
0.311 µM | Cc1ccccc1[C@H](CC(=O)O)NC(=O)c1nc(-c2ccccc2F)oc1C [Example 25, (S)-3-{[2-(2-Fluoro-phenyl)-5-methyl-oxazole-4-carbonyl]-amino}-3-o-tolyl-propionic acid]
> 10 µM | Cc1ccccc1[C@H](CC(=O)O)NC(=O)c1cc(-c2ccc(Cl)cc2)on1 [Example 26, (S)-3-{[5-(4-Chloro-phenyl)-isoxazole-3-carbonyl]amino}-3-o-tolyl-propionic acid]
3.49 µM | Cc1cccc([C@H](CC(=O)O)NC(=O)c2nc(-c3ccccc3F)oc2C)c1 [Example 27, (S)-3-{[2-(2-Fluoro-phenyl)-5-methyl-oxazole-4-carbonyl]-amino}-3-m-tolyl-propionic acid]
1.11 µM | Cc1oc(-c2ccccc2)nc1C(=O)N[C@@H](CC(=O)O)c1cccc(Cl)c1 [Example 28, (S)-3-(3-Chloro-phenyl)-3-[(5-methyl-2-phenyl-oxazole-4-carbonyl)-amino]-propionic acid]
0.542 µM | Cc1oc(-c2ccccc2F)nc1C(=O)N[C@@H](CC(=O)O)Cc1ccccc1 [Example 29, (R)-3-{[2-(2-Fluoro-phenyl)-5-methyl-oxazole-4-carbonyl]-amino}-4-phenyl-butyric acid]
> 10 µM | Cc1oc(-c2ccccc2F)nc1C(=O)N[C@@](C)(CC(=O)O)c1ccccc1 [Example 30, (S)-3-{[2-(2-Fluoro-phenyl)-5-methyl-oxazole-4-carbonyl]-amino}-3-phenyl-butyric acid]
> 10 µM | O=C(O)C[C@H](NC(=O)CCc1nc(-c2ccccc2F)no1)c1ccccc1 [Example 31, (S)-3-{3-[3-(2-Fluoro-phenyl)-[1,2,4]oxadiazol-5-yl]-propionylamino}-3-phenyl-propionic acid]
1.21 µM | Cc1oc(-c2ccccc2)nc1C(=O)N[C@@H](CC(=O)O)c1ccccc1Cl [Example 32, (S)-3-(2-Chloro-phenyl)-3-[(5-methyl-2-phenyl-oxazole-4-carbonyl)-amino]-propionic acid]
1.03 µM | Cc1nc(C(=O)N[C@@H](CC(=O)O)c2ccccc2)nn1-c1ccccc1Cl [Example 33, (S)-3-{[1-(2-Chloro-phenyl)-5-methyl-1H-[1,2,4]triazole-3-carbonyl]-amino}-3-phenyl-propionic acid]
